# Data reported in PubChem BioAssay (NCI).
#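 Cultured in 96-well plates, cells were exposed to test compound for 48 hours across five concentrations. GI50 is the concentration that inhibits growth by half. TGI denotes the concentration required for complete inhibition of growth.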
# Assays:
# Experiment in all cases: NCI-60 cell line screen, 48 h
# EKVX NSCLC = test system: EKVX NSCLC
# HCT-15 colon = test system: HCT-15 colon
# SNB-75 CNS = test system: SNB-75 CNS
# IGROV1 ovarian = test system: IGROV1 ovarian
# HL-60(TB) leukemia = test system: HL-60(TB) leukemia
# HCT-116 colon = test system: HCT-116 colon
# SK-MEL-2 melanoma = test system: SK-MEL-2 melanoma
# OVCAR-3 ovarian = test system: OVCAR-3 ovarian
# SNB-19 CNS = test system: SNB-19 CNS
# M14 melanoma = test system: M14 melanoma
Compound,GI50 (EKVX NSCLC) [µM],TGI (EKVX NSCLC) [µM],GI50 (HCT-15 colon) [µM],TGI (HCT-15 colon) [µM],GI50 (SNB-75 CNS) [µM],TGI (SNB-75 CNS) [µM],GI50 (IGROV1 ovarian) [µM],TGI (IGROV1 ovarian) [µM],GI50 (HL-60(TB) leukemia) [µM],TGI (HL-60(TB) leukemia) [µM],GI50 (HCT-116 colon) [µM],TGI (HCT-116 colon) [µM],GI50 (SK-MEL-2 melanoma) [µM],TGI (SK-MEL-2 melanoma) [µM],GI50 (OVCAR-3 ovarian) [µM],TGI (OVCAR-3 ovarian) [µM],GI50 (SNB-19 CNS) [µM],TGI (SNB-19 CNS) [µM],TGI (M14 melanoma) [µM],GI50 (M14 melanoma) [µM]
COC(=O)c1cc2c3ccccc3[nH]c2c2sccc12,4.12,> 100,8.9,94.4,19,70.6,4.31,> 100,> 100,> 100,34.1,> 100,40.8,> 100,24.1,> 100,23.6,79.7,–,–
Cc1[nH]c(=O)[nH]c1C(=O)c1ccc(-n2ccnc2)cc1,–,–,–,> 100,–,> 100,–,> 100,–,> 100,–,> 100,–,> 100,–,> 100,–,> 100,> 100,–
CCc1cc(CCC(=O)Nc2ccccc2[N+](=O)[O-])[nH]c(=S)n1,–,> 100,–,> 100,–,–,–,> 100,–,> 100,–,> 100,–,> 100,–,> 100,–,> 100,> 100,–
Nc1ccc(-c2cccs2)cc1NC(=O)c1ccc(CCCC(=O)Nc2ccc(C3CC3N)cc2)cc1 (configuration not stated),3.5,> 100,5.99,> 100,1.65,4.27,4.8,> 100,2.54,> 100,–,–,7.28,> 100,1.48,3.14,–,–,–,–
CCCCCCCCCNC(=O)/C=C/c1ccc(O)c(O)c1,37.5,> 100,5.25,19.9,15.4,85.2,1.1,5.49,–,–,4.94,18.4,17.3,37.2,5.95,24.3,21.4,50.3,26.7,12.2
C=C(C(=C)N1N=NC2C3CCC(C3)C21)N1N=NC2C3CCC(C3)C21 (configuration not stated),–,–,–,–,–,> 100,–,> 100,–,54.6,–,> 100,–,–,–,> 100,–,> 100,> 100,–
CCOC(=O)c1cnc2c(ccc3ncccc32)c1NCCCN(CC)CC,–,> 100,–,> 100,–,–,–,> 100,–,38.4,–,–,–,> 100,–,> 100,–,> 100,35.1,–
CCOC(=O)C#Cc1c(C(=O)OCC)nnn1Cc1ccc([N+](=O)[O-])cc1,16.4,32.9,1.66,3.29,6.29,20.5,11.9,28.5,1.62,5.62,2.02,4.3,13,26.3,–,–,18.9,45.3,9.13,2.97
NS(=O)(=O)c1ccc(N(/C=C/C(=O)C(F)(F)F)Cc2ccc(Cl)cc2)cc1,22.5,49.6,31.1,87.2,32.2,65.1,–,–,39,78.3,14.7,28.1,27.2,62,30.3,> 100,41.9,> 100,43.4,21
CCOC(=O)c1cc(-c2ccccc2)[nH]c1N/N=C/c1ccc(Cl)cc1,36,> 100,49.3,> 100,> 100,> 100,95.2,> 100,29.5,63.8,47.6,> 100,62.6,> 100,> 100,> 100,> 100,> 100,–,–
O=C(NO)[C@@H](Cc1ccccc1)NS(=O)(=O)c1ccc(-c2ccccc2)cc1,15.7,> 25,> 25,> 25,> 25,> 25,8.52,> 25,–,–,11.7,> 25,> 25,> 25,13.6,> 25,> 25,> 25,> 25,> 25
NS(=O)(=O)CC1CC[CH-]CC1.[Cl-].[Cl-].[Cl-].[Cl-].[Cl-].[Sb+5].c1ccncc1,> 100,> 100,> 100,> 100,> 100,> 100,> 100,> 100,–,–,> 100,> 100,> 100,> 100,> 100,> 100,> 100,> 100,> 100,> 100
CC1=C(O)/C(=C/C(C)CCC/C(C)=C/C=C/C(C)CCCc2ccoc2)OC1=O (configuration not stated),–,67.1,–,–,–,> 100,–,–,–,63.8,–,–,–,57.9,–,–,–,–,> 100,–
CCN(CC)C(=S)SCN1C(=O)c2ccccc2S1(=O)=O,> 100,> 100,50.9,> 100,46.7,> 91.5,55.2,> 100,–,–,54.2,> 100,> 94.4,> 100,34.3,> 100,78,> 100,> 82.5,20.9
C=C1CC2CC(O)CC(C1)C2 (configuration not stated),–,> 100,–,–,–,> 100,–,> 100,–,–,–,> 100,–,> 100,–,> 100,–,> 100,> 100,–
CCCN(CCC)c1ccc(/C=N/NC(=O)c2cccnc2)c(OC)c1,16.9,59.2,27.5,> 100,23.7,80.4,29.3,> 100,22.7,59.2,22.7,> 100,–,–,16.9,36.7,41.6,> 100,–,–
CSc1snc2sc3c(Cl)nnnc3c12,–,38.6,–,24.9,–,23.7,–,37.3,–,–,–,30.9,–,27.7,–,5.72,–,30.1,26.3,–

Compound,GI50 (EKVX NSCLC) [µM],TGI (EKVX NSCLC) [µM],GI50 (HCT-15 colon) [µM],TGI (HCT-15 colon) [µM],GI50 (SNB-75 CNS) [µM],TGI (SNB-75 CNS) [µM],GI50 (IGROV1 ovarian) [µM],TGI (IGROV1 ovarian) [µM],GI50 (HL-60(TB) leukemia) [µM],TGI (HL-60(TB) leukemia) [µM],GI50 (HCT-116 colon) [µM],TGI (HCT-116 colon) [µM],GI50 (SK-MEL-2 melanoma) [µM],TGI (SK-MEL-2 melanoma) [µM],GI50 (OVCAR-3 ovarian) [µM],TGI (OVCAR-3 ovarian) [µM],GI50 (SNB-19 CNS) [µM],TGI (SNB-19 CNS) [µM],TGI (M14 melanoma) [µM],GI50 (M14 melanoma) [µM]
O=C(O)c1c(=O)cccc2ssc12,1.35,3.12,1.73,3.52,–,–,2.39,5.91,1.81,4.43,1.62,3.32,2.03,3.83,1.81,3.38,1.92,3.79,4.07,1.92
C=C1C(OC(=O)/C=C/c2ccccc2)CC(OC(C)=O)C2(C)C1CC1CC(OC(C)=O)C(C)=C(C(OC(C)=O)C2OC(C)=O)C1(C)C (configuration not stated),–,–,–,> 100,–,> 100,–,> 100,–,–,–,> 100,–,–,–,–,–,> 100,> 100,–
N#Cc1cc(S(=O)(=O)Nc2nnc(-c3ccccc3)c(-c3ccccc3)n2)c(SCc2ccccc2)cc1Cl,22.8,48.7,17.4,33.3,–,–,29.7,83.5,19.9,44.8,18.5,36.2,41.8,> 100,15.3,31.5,35.1,> 100,80.4,27.4
O=C1c2ccccc2-c2c1c1c(O)cccc1n2Cc1ccccn1,17.6,70,53.8,> 100,> 100,> 100,88.6,> 100,–,–,63.5,> 100,> 100,> 100,20.1,69.4,> 100,> 100,> 100,70.7
CCn1c(-c2nonc2N)nc2c(C#CC(C)(C)O)ncc(OC[C@H]3CCCNC3)c21,–,–,20.3,> 100,0.0584,1.54,0.0876,23.2,10.6,32,12.9,> 95.9,7.57,23,6.92,25.9,15.1,42.8,37.7,14.8
O=NNc1ccc(Sc2ccc(NN=O)cn2)nc1,–,> 100,–,> 100,–,> 100,–,> 100,–,> 100,–,> 100,–,–,–,> 100,–,> 100,> 100,–
OCCNc1nc(Nc2ccc(Cl)c(Cl)c2)nc2ccccc12,–,–,2.84,9.34,4.79,18.7,5.14,20,8.69,33.4,3.52,14.6,16.4,33.1,7.51,19.9,5.02,18.6,–,–
CC(=O)O[C@@]1(C)[C@@H](C)C(=O)O[C@@H]2CCN3CC=C(COC(=O)[C@]1(C)O)[C@H]23,–,–,–,> 100,–,> 100,–,> 100,–,> 100,–,> 100,–,> 100,–,> 100,–,> 100,> 100,–
O=C1C2C(C(=O)N1c1ccccc1)C1([N+](=O)[O-])C=C3c4ccccc4N(C(=O)c4ccccc4)C32C2C(=O)N(c3ccccc3)C(=O)C21 (configuration not stated),–,–,–,> 100,–,> 100,–,> 100,–,> 100,–,> 100,–,> 100,–,> 100,–,> 100,> 100,–
Cc1cccc(C(C)(C)C)c1NC(=O)CCc1nc(=S)[nH][nH]1,–,–,–,> 100,–,> 100,–,> 100,–,> 100,–,> 100,–,> 100,–,> 100,–,> 100,> 100,–
CC1(C)NCCC[C@]2(C)[C@H]3CC[C@@H]4[C@H]5[C@H](C(=O)/C=C/c6ccccn6)CC[C@]5(CO)CC[C@@]4(C)[C@]3(C)CC[C@@H]12,5.51,23.4,1.84,3.89,–,–,–,–,1.84,4.7,1.72,3.15,2.49,6.91,2.14,4.89,3.92,19.8,3.56,1.81
CCCCCCCCCCCCCCCCCCOCC(CCP(=O)(CP(=O)(O)O)Oc1ccccc1)OCCCCCCCCCCCCCCCCCC (configuration not stated),–,> 100,–,> 100,–,> 100,–,> 100,–,> 100,–,> 100,–,–,–,> 100,–,> 100,> 100,–
CC(=O)O[C@H](C[C@H](C(C)C)N(C)C(=O)[C@@H](NC(=O)[C@H]1CCCN1C)C(C)C)c1nc(C(=O)N[C@@H](Cc2ccccc2)C[C@H](C)C(=O)O)c(C)s1,0.0044,> 16.7,0.00772,> 16.7,< 0.00167,> 16.7,0.00241,> 16.7,< 0.00167,< 0.00167,< 0.00167,> 16.7,< 0.00167,> 16.7,–,–,< 0.00167,> 16.7,> 16.7,< 0.00167
CC(=O)c1c(CO[N+](=O)[O-])n([O-])c2ccccc2[n+]1=O,–,> 100,–,> 100,–,> 100,–,> 100,–,–,–,> 100,–,> 100,–,> 100,–,> 100,> 100,–
O=C(CC(=O)c1cccc2ccccc12)C(=O)NC1C2CC3CC(C2)CC1C3 (configuration not stated),–,> 100,–,> 100,–,–,–,> 100,–,> 100,–,> 100,–,–,–,> 100,–,> 100,> 100,–
CO/N=C(\COc1ccc2oc(-c3ccccc3)cc(=O)c2c1)c1ccc(OC)cc1,37.3,> 100,30.2,> 100,25.4,54.5,17.9,42.8,6.16,> 100,16.9,33.8,31,> 100,22.7,71,–,–,49.2,21.4
